As usually defined, the Hill coefficient is the slope factor of the fitted curve. One may read the Ki as the equilibrium dissociation constant of an inhibitor or competing ligand from its target.

This note sets out measurements from article PMC3866371 (Neuropharmacology, 2013).

Experiment [1] deals with T1, rat α3β4 nAChR (Rattus norvegicus, UniProt P04757+P12392). Briefly: Competition binding with [^125I]AT-1012 as radioligand, HEK cell membranes.
Experiment [2] deals with T1, rat α3β4 nAChR. Nature of the experiment: Competition binding with [^3H]epibatidine as radioligand, HEK cell membranes.
For experiment [3], the target named is rat α4β2 nAChR (Rattus norvegicus, UniProt P09483+P12390). The experiment is described as above.
The target in experiment [4] is T2, human α3β4α5 nAChR (Homo sapiens, UniProt P30926+P32297). Nature of the experiment: Competition binding with [^125I]AT-1012 as radioligand, HEK cell membranes.
In experiment [5] the target is T2, human α3β4α5 nAChR. Type of experiment: binding.
The target in experiment [6] is α7 nAChR (Homo sapiens, UniProt P36544). Nature of the experiment: Binding at α7 nAChR.
The mark [7] stands for this setting: radioligand [^125I]AT-1012, rat α3β4 nAChR, average ± SD.
Where [8] appears, read: read-out: Binding affinity (Ki).
Setting [9] is: radioligand [^125I]AT-1012, human α3β4α5 nAChR, average ± SD.

Read-outs that look alike come from different tables or passages of the source.

Consider `CN1CCC[C@H]1c1cccnc1` [Nicotine], for which the Hill coefficient in experiment [1] is reported as 467±48 (0.68±0.02); in experiment [2] (radioligand [^3H]epibatidine, rat α3β4 nAChR, average ± SD), 1.08±0.12; in experiment [3] (radioligand [^3H]epibatidine, rat α4β2 nAChR, average ± SD), 0.95±0.07; in experiment [4], 1305±219 (0.75±0.05); in experiment [5] (radioligand [^3H]epibatidine, human α3β4α5 nAChR, average ± SD), 0.91±0.04.

On to `CNC1(C)C2CCC(C2)C1(C)C` (stereo not drawn) [Mecamylamine], for which, in experiment [1] (rat α3β4 nAChR), the “Inhibition of [^125I]AT-1012 binding” value was “do not inhibit”. The Ki in experiment [3] is greater than 10000 nM. Moreover, in experiment [4], the “Competition with [^125I]AT-1012 at the human α3β4α5 nAChR” value is given as “do not compete”.

With `CN1[C@@H]2CCC[C@H]1CC(Nc1ccccc1I)C2` (stereo partly drawn) [AT-1012], the Hill coefficient in experiment [1] (setting [7]) was 1.03±0.01; in experiment [2] it was 0.77±0.09; in experiment [3] it was 0.88±0.02; in experiment [4] (setting [9]), 0.96±0.09. The Ki in experiment [2] (setting [8]) turned out to be 1.3 ± 0.16 nM; in experiment [3] (setting [8]) it was 142 ± 2 nM; in experiment [4] (read-out: Binding affinity (Ki) at human α3β4α5 nAChR, radioligand [^125I]AT-1012, average ± SD), 0.68 ± 0.06 nM; in experiment [5] (read-out: Binding affinity (Ki) at human α3β4α5 nAChR), 1.08 ± 0.05 nM. The “Binding selectivity for the α3β4 over α4β2 nAChR” value in experiment [3] is listed as “over 100 fold”. In addition, in experiment [6], the “Selectivity versus the α7 nAChR” value was “greater than 100 fold”.

Regarding `CN1C2CCCC1CC(Nc1ccccc1Br)C2` (stereo not drawn) [AT-1001], the Hill coefficient was 0.94±0.04 in experiment [1] (setting [7]); 0.87±0.19 in experiment [2]; 0.97±0.11 in experiment [3]; 0.95±0.05 in experiment [4] (setting [9]); 0.82±0.04 in experiment [5]. In experiment [3] (setting [8]), the Ki is 263 ± 9.3 nM.

Regarding `Clc1ccc(C2CC3CCC2N3)cn1` (stereo not drawn) [Epibatidine], the Hill coefficient was determined as 0.89±0.01 in experiment [1] (setting [7]), 1.00±0.06 in experiment [2], 0.88±0.02 in experiment [4] (setting [9]) and 0.98±0.02 in experiment [5].

For `COCC[C@H]1CC2CN3CCc4c([nH]c5ccccc45)[C@](C(=O)OC)(C2)[C@H]13` [Compound 18-MC, 18-methoxycoronaridine], the Ki in experiment [1], in experiment [2] and in experiment [3] was greater than 10000 nM each time. Moreover, the “Inhibition of [^125I]AT-1012 binding” value in experiment [1] (rat α3β4 nAChR) is “do not inhibit”. In addition, the “Competition with [^125I]AT-1012 at the human α3β4α5 nAChR” value in experiment [4] was “do not compete”.
